Test: recombinant barcode read abundance after kanamycin selection (control-corrected) (log10(CPM+1)); higher = more efficient recombination; sequences stand for … in AGTGCAGAGAAAATCGGCCAGTTTTCTCTGCCTGCAGTCCGCATGCCGT…AGATTTATGCAGCGGACTGCCTTTCTCCCAAAGTGATAAACCGGACAGTATCATGGACCGGTTTTCCCGGTAATCCGTATTTGCAAGGTTGGTTTCACT; site = the 11-nt target
Outline: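 For this pooled screen, each oligo contained a promoter, a target, a barcode and the J23119-driven first 104 bases of the bridge RNA. Gibson cloning placed it into a vector supplying the remaining 73 bp and a T7-inducible recombinase, and the pool was co-electroporated into E. coli with a donor plasmid. Recombination efficiency is derived from barcode counts per million at recombinant junctions after averaging and control correction, and is expressed on a log scale as log10(CPM+1), with selection on chloramphenicol/ampicillin/kanamycin plus 0.1 mM IPTG against a chloramphenicol/ampicillin LB agar control.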
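Note: IS621 recombinase and bridge RNA in Escherichia coli cells.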

Sequence | recombinant barcode read abundance (log10)
CAACCTTCTTGGGTTCTAACCTGTTGCCT (site CTACCTTCTAG) | 0.025
CAAGACCCTTGGGTTCTAACCTGTTGCCT (site CAAGACCCTAG) | 2.5
CAAGACCCTTGGGTTCTAACCTGTTGCCT (site CACGACCCTAG) | 0.763
CAAGACCCTTGGGTTCTAACCTGTTGCCT (site CAGGACCCTAG) | 1.05
CAAGACCCTTGGGTTCTAACCTGTTGCCT (site CATGACCCTAG) | 1.17
CAAGAGTCTTGGGTTCTAACCTGTTGCTT (site CAAGAGTCTAA) | 2.26
CAAGAGTCTTGGGTTCTAACCTGTTGCTT (site CGAGAGACTAA) | 0.178
CAAGGGACTTGGGTTCTAACCTGTTGCGG (site CAAGGGACTCC) | 2.33
CAAGGGACTTGGGTTCTAACCTGTTGCGG (site CAGGGGACTCG) | 0.0306
CAAGTCCCTTGGGTTCTAACCTGTTGCCT (site AAAGTCCCTAG) | 0.0441
CAAGTCCCTTGGGTTCTAACCTGTTGCCT (site CAAGTCCCTAG) | 1.9
CAAGTCCCTTGGGTTCTAACCTGTTGCCT (site GAAGTCCCTAG) | 0.207
CAAGTCCCTTGGGTTCTAACCTGTTGCCT (site TAAGTCCCTAG) | 0.211
CAAGTCGCTTGGGTTCTAACCTGTTGCCT (site CAAGTAGCTAG) | 0.219
CAAGTCGCTTGGGTTCTAACCTGTTGCCT (site CAAGTCGCTAG) | 1.29
CAAGTCGCTTGGGTTCTAACCTGTTGCCT (site CAAGTGGCTAG) | 0.458
CAAGTCGCTTGGGTTCTAACCTGTTGCCT (site CAAGTTGCTAG) | 0.0227
CAATCCTCTTGGGTTCTAACCTGTTGCCT (site AAATCCTCTAG) | 0.0785
CAATCCTCTTGGGTTCTAACCTGTTGCCT (site CAATCCTCTAG) | 1.2
CAATCCTCTTGGGTTCTAACCTGTTGCCT (site GAATCCTCTAG) | 0.0242
CAATCCTCTTGGGTTCTAACCTGTTGCCT (site TAATCCTCTAG) | 0.127
CAATCCTCTTGGGTTCTAACCTGTTGCTA (site CAATCCTCTTA) | 0.443

Sequence | recombinant barcode read abundance (log10)
CAATCCTCTTGGGTTCTAACCTGTTGCTA (site TCTGTAACTAG) | 0.0981
CAATGGCCTTGGGTTCTAACCTGTTGCCT (site CAAAGGCCTAG) | 0.126
CAATGGCCTTGGGTTCTAACCTGTTGCCT (site CAACGGCCTAG) | 0.253
CAATGGCCTTGGGTTCTAACCTGTTGCCT (site CAAGGGCCTAG) | 0.27
CAATGGCCTTGGGTTCTAACCTGTTGCCT (site CAATGGCCTAG) | 0.571
CACAAAGCTTGGGTTCTAACCTGTTGCCT (site CACAAAGCTAG) | 0.84
CACAAAGCTTGGGTTCTAACCTGTTGCCT (site CACACAGCTAG) | 0.143
CACAACACTTGGGTTCTAACCTGTTGCCT (site CACAACACTAG) | 1.84
CACAACACTTGGGTTCTAACCTGTTGCCT (site CACACCACTAG) | 0.287
CACAACACTTGGGTTCTAACCTGTTGCCT (site CACAGCACTAG) | 0.0135
CACAACACTTGGGTTCTAACCTGTTGCCT (site CACATCACTAG) | 0.0296
CACAAGTCTTGGGTTCTAACCTGTTGCGT (site CACAAGTCTAC) | 1.38
CACAAGTCTTGGGTTCTAACCTGTTGCGT (site CACCAGTCTCC) | 0.0392
CACACCACTTGGGTTCTAACCTGTTGCCT (site CACAACACTAG) | 0.243
CACACCACTTGGGTTCTAACCTGTTGCCT (site CACACCACTAG) | 0.698
CACACCACTTGGGTTCTAACCTGTTGCCT (site CACAGCACTAG) | 0.211
CACACCACTTGGGTTCTAACCTGTTGCCT (site CACATCACTAG) | 0.108
CACACCGCTTGGGTTCTAACCTGTTGCCT (site CACACCGCTAG) | 1.62
CACACCGCTTGGGTTCTAACCTGTTGCCT (site CACACGGCTAG) | 0.0403
CACACTCCTTGGGTTCTAACCTGTTGCAG (site CACACTCCTCT) | 0.498
CACACTCCTTGGGTTCTAACCTGTTGCAG (site CAGACGCCTCT) | 0.193

Source: the supplement of paper PMC11208160
